{"source": "patent US10058100B2", "about": "“Hydrogen sulfide releasing compounds and their use” (THE UNIVERSITY OF EXETER, priority 2011, dated 2018)", "key": {"HMEC [1]": {"test_system": "HMEC", "assay": "Mitochondrial membrane potential (ΔΨm), tetramethylrhodamine methyl ester", "type": "cell-based, human", "conditions": "H2O2, SIN-1 or 4-HNE; AP39 100 nM, FIG. 13", "description": "HMEC were incubated with H2S donor compounds for 5 hrs followed by the addition of oxidants SIN-1 (500 μM), H2O2 (50 μM) or […] (10 μM) for 24 hrs. After this time the mitochondria-specific potentiometric dye tetramethylrhodamine methyl ester (200 nM) was added and fluorescence was determined using a Gemini M2e microplate reader (excitation wavelength 548 nm, emission wavelength 573 nm). The method was performed in accordance with the method described by M. Whiteman et al (FASEB J, 2004, 18, 1395-1397)."}, "[2]": {"test_system": "spontaneously hypertensive (SHR) rats", "assay": "Blood pressure, heart rate and breathing rate of anaesthetised SHR rats", "type": "in vivo, rat", "description": "The catheter was inserted into the right jugular vein of male wistar rats or male spontaneously hypertensive (SHR) rats so as to reach the right atrium. Anesthesia (ZOLELIT, VIRBAC, 40 mg/kg to leg) and Xylazine 2%. AP39 solutions were prepared in 4 μl DMSO then mixed with 100 μl Krebs solution and immediately applied for 10 sec. (FIGS. 20, 21 and 22).\nBlood pressure, heart rate and breathing rate were all measured at the same time, in accordance with Ling et al., 2008 Circulation 117 2351-2360."}, "[3]": {"test_system": "transcription factor Nrf2", "assay": "Nrf2 activation, luciferase reporter in AREc32 cells", "type": "cell-based, human", "conditions": "FIG. 34", "description": "Nrf2 activation was studied in AREc32 cells. This stable cell line is derived from MCF-7 cells transfected with a construct containing eight copies of the rat glutathione-S-transferase-A2 Antioxidant Response […] Element (ARE) and the SV40 promoter sequence upstream of a firefly luciferase reporter gene (Wang, X. J. et al., 2006, Cancer Res, 66, 10983-94). […] After 4 h the treatments were removed and the cells were treated with sulforaphane (12.5 μM), an Nrf2-activator and positive control, for 24 hrs. Nrf-2 activation (luciferase activity) was then assessed by luminescence with a BMG labtech Omega microplate reader (FIG. 34). Data are expressed as fold induction of luciferase activity normalised to cell biomass (sulforhodamine B)."}, "HMEC [4]": {"test_system": "HMEC", "assay": "Mitochondrial oxidative stress measurements (MitoSox Red)", "type": "cell-based, human", "description": "HMEC were incubated with H2S donor compounds for 5 hrs then the oxidants H2O2, SIN-1 or […] added for 2 hrs. We used a mitochondria-selective oxidant probe MitoSox Red (final concentration, 5 μM) to detect mitochondria-derived oxidant species by fluorescence using a Gemini M2e microplate reader (excitation wavelength 510 nm, emission wavelength, 580 nm). The method was performed in accordance with the method described by M. Whiteman et al (Meths. Mol. Biol., 2008, 476, 29-50) and R. A. Quintanilla et al (J Biol Chem., 2008, 284, 18754-18766)."}, "[5]": {"test_system": "Human brain microvascular endothelial cells (HMEC)", "assay": "Prevention of cell death induced by oxidants (SIN-1, H2O2, 4-HNE), Alamar Blue", "type": "cell-based"}, "inflammasome [6]": {"test_system": "inflammasome", "assay": "Inhibition of inflammasome activation (LPS/ATP), IL-1β ELISA in THP-1 cells", "type": "cell-based, human", "conditions": "AP39 with LPS 1 μg/ml 24 hrs, then ATP 5 mM 24 hrs, FIG. 35", "description": "Human THP-1 cells were cultured in RPMI medium and incubated with AP39 and bacterial endotoxin (lipopolysaccharide; LPS) (1 μg/ml) for 24 hrs, followed by ATP (5 mM) for an additional 24 hrs. After this time cell culture media was collected and inflammasome activation determined by measuring […] levels in the culture media by commercial ELISA (Human IL-1 beta ELISA Ready-SET-Go, eBioscience) (FIG. 35). Data are mean+/−standard deviation (n=3)."}, "inflammasome [7]": {"test_system": "inflammasome", "assay": "Inhibition of inflammasome activity once inflammasome is activated, IL-1β ELISA in THP-1 cells", "type": "cell-based, human", "conditions": "LPS 24 hrs, then ATP and AP39 24 hrs, FIG. 36", "description": "Human THP-1 cells were cultured in RPMI medium and exposed to bacterial endotoxin (lipopolysaccharide; LPS) (1 μg/ml) for 24 hrs, followed by ATP (5 mM) and AP39 for 24 hrs. After this time cell culture media was collected and inflammasome activity determined by measuring IL-1β levels in the culture media by commercial ELISA (Human IL-1 beta ELISA Ready-SET-Go, eBioscience) (FIG. 36). Data are mean+/−standard deviation (n=3)."}, "peroxiredoxin 3 (Prx3)": {"test_system": "peroxiredoxin 3 (Prx3)", "assay": "Western blot of mitochondrial peroxiredoxin 3 oxidation in THP-1 cells", "type": "cell-based, human", "description": "Human THP-1 (monocytic) cells were exposed to an oxidative stress inducing agent (hydrogen peroxide; H2O2, 25 μM) in the presence or absence of the mitochondria-targeted H2S donor AP39.\nIn the experiment resulting in FIG. 32, the human THP-1 (monocytic) cells were exposed to 25 μM H2O2 for 4 hours in the absence or presence of different concentrations of AP39 (given in μM).\nIn the experiment resulting in FIG. 33, the human THP-1 (monocytic) cells were exposed to different concentrations of AP39 (given in μM) for 4 hours followed by the addition of 25 μM H2O2 for 1 minute.\nIn both experiments, after these time periods the levels of native mitochondrial matrix protein peroxiredoxin 3 (Prx3) (dimer, molecular weight 37 kDa) and over-oxidised Prx3 (monomer, molecular weight 25 kDa) were determined by standard western blotting procedures (M Whiteman et al (FASEB J, 2004, 18, 1395-1397) (FIGS. 32 and 33)."}, "[8]": {"test_system": "chloride channels derived from rat heart sarcoplasmic reticulum", "assay": "Single channel properties of chloride channels in bilayer lipid membrane", "type": "biochemical", "description": "Sarcoplasmic reticulum (SR) vesicles, isolated from rat heart, were fused into bilayer lipid membrane separating the cis and trans chambers, and electrical current through the single chloride channel was measured. […] The single channel parameters: Open probability, current-voltage relationship, reversal potential, mean open and close time and single current amplitude were evaluated (FIGS. 24-28)."}, "HMEC [9]": {"test_system": "HMEC", "assay": "Cell death induced by inhibitors of endogenous H2S synthesis (AOAA, PAG)", "type": "cell-based, human", "conditions": "AP39 100 nM, FIGS. 5-7, p<0.001", "source_text": "In the data shown in FIGS. 5 to 7, ###=p<0.001 compared to the control; ***=p<0.001 compared to inhibitors."}}}
{"smiles": "O=C(CCCCCCCCC[P+](c1ccccc1)(c1ccccc1)c1ccccc1)Oc1ccc(-c2cc(=S)ss2)cc1.[Br-]", "note": "[AP39]", "values": [{"measurement": "oxidant-induced mitochondrial membrane potential (Δψm) collapse", "setting": "HMEC [1]", "result": "inhibition"}, {"measurement": "blood pressure", "setting": "[2]; SHR rats, 1.5 μM/kg AP39 injected, FIG. 21", "result": "Sustained blood pressure lowering effects"}, {"measurement": "heart rate", "setting": "[2]; hypertensive (SHR) rats, AP39, summary statement", "result": "reducing"}, {"measurement": "Nrf2 transcription factor activation (luciferase activity)", "setting": "[3]; AREc32 cells, AP39 6.25 μM pre-treatment 4 h", "result": "activates"}, {"measurement": "potency at inducing Nrf2 activation compared with GYY4137", "setting": "[3]; equimolar concentrations (6.25 μM)", "result": "more potent"}, {"measurement": "mitochondrial superoxide formation induced by 4-HNE (MitoSOX red)", "setting": "HMEC [4]; 4-HNE 10 μM, AP39 0.1 μM, FIGS. 16 and 18", "result": "significantly reduced"}, {"measurement": "lower concentration than GYY4137 for reduction of mitochondrial superoxide", "setting": "HMEC [4]; AP39 0.1 μM versus GYY4137 100 μM", "result": "1,000 fold"}, {"measurement": "mitochondrial superoxide formation induced by H2O2 (MitoSOX red)", "setting": "HMEC [4]; H2O2 50 μM, AP39 0.1 μM, FIG. 17", "result": "reduced"}, {"measurement": "H2O2-induced cytotoxicity", "setting": "[5]", "result": "inhibited"}, {"measurement": "SIN-1 and 4-HNE induced cell death", "setting": "[5]", "result": "significantly inhibited"}, {"measurement": "cell death induced by 4-HNE", "setting": "[5]", "result": "significantly inhibited"}, {"measurement": "cell death induced by SIN-1", "setting": "[5]", "result": "significantly inhibited"}, {"measurement": "concentration mediating inhibition of cell death, mitochondrial dysfunction and oxidative stress", "setting": "[5]", "result": "50 to 200", "unit": "nM"}, {"measurement": "IL-1β levels in the cell culture media (inflammasome activation)", "setting": "inflammasome [6]", "result": "reduced"}, {"measurement": "inflammasome activity after activation by LPS/ATP (IL-1β levels)", "setting": "inflammasome [7]", "result": "inhibited"}, {"measurement": "Prx3 oxidation by H2O2", "setting": "peroxiredoxin 3 (Prx3); 5 μM AP39 for 4 hours then 25 μM H2O2 for 1 minute, FIG. 33", "result": "reduced"}, {"measurement": "levels of the over-oxidised monomeric form of Prx3", "setting": "peroxiredoxin 3 (Prx3); 25 μM H2O2, increasing concentrations of AP39, FIGS. 32 and 33", "result": "reduced"}, {"measurement": "mean open time of the channel", "setting": "[8]; AP39 20 μmol/l, 0 mV, control 11 ms, FIG. 27", "result": 33, "unit": "ms"}, {"measurement": "amplitude of the electrical current through the single chloride channels", "setting": "[8]; AP39 20 and 40 μM, 0 mV, FIGS. 24 and 25", "result": "increased"}, {"measurement": "channel open probability", "setting": "[8]; FIGS. 24-28", "result": "increased"}, {"measurement": "mean chloride channel open time, concentration dependence", "setting": "[8]; concentration dependent manner, FIG. 28", "result": "increased"}, {"measurement": "conductance of chloride channels", "setting": "[8]; control channel 125 pS, FIG. 26", "result": "increased"}, {"measurement": "Cl−/K+ channel permeability ratio", "setting": "[8]; control ratio 9.6, FIG. 26", "result": "did not influence"}, {"measurement": "channel reversal potential", "setting": "[8]; with AP39, control ~−31 mV, FIG. 26", "result": "~−31", "unit": "mV"}, {"measurement": "AOAA, PAG and AOAA/PAG induced cell death", "setting": "HMEC [9]", "result": "significantly inhibited"}]}
